Values joined by “and” are separate entries in the source; they are usually repeats but may differ in a detail not shown here. Identical values can stand only once. Inconclusive results and toxic doses are left out. No stated cut-off is given here; in the data, active means T/C of 150% or more; inactive means T/C below 125%.
System: L1210 leukemia ip in BDF1 mice, survival T/C
Assay: NCI In Vivo Anticancer Drug Screen. Data for tumor model L1210 Leukemia (intraperitoneal) in B6D2F1 (BDF1) mice
Settings: endpoint: mean survival time, higher = longer survival
Summary of the method: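 Each compound was tested against a transplantable tumor grown in mice. The endpoint was survival, with treated animals benchmarked against vehicle controls as a simple ratio.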

[1] = dose: 18.0 mg/kg/injection, schedule: Q01DX001 (ip), vehicle: saline
[2] = dose: 25.0 mg/kg/injection, schedule: Q01DX009 (ip), vehicle: saline
[3] = dose: 25.0 mg/kg/injection, schedule: Q04DX003 (ip), vehicle: saline
[4] = dose: 50.0 mg/kg/injection, schedule: Q01DX009 (ip), vehicle: saline
[5] = dose: 100.0 mg/kg/injection, schedule: Q01DX009 (ip), vehicle: saline
[6] = dose: 100.0 mg/kg/injection, schedule: Q04DX003 (ip), vehicle: saline
[7] = dose: 200.0 mg/kg/injection, schedule: Q01DX009 (ip), vehicle: saline
[8] = dose: 200.0 mg/kg/injection, schedule: Q04DX003 (ip), vehicle: saline
[9] = dose: 400.0 mg/kg/injection, schedule: Q01DX009 (ip), vehicle: saline
[10] = dose: 400.0 mg/kg/injection, schedule: Q04DX003 (ip), vehicle: saline
[11] = dose: 100.0 mg/kg/injection, schedule: Q04DX002 (ip), vehicle: saline
[12] = dose: 200.0 mg/kg/injection, schedule: Q04DX002 (ip), vehicle: saline
[13] = dose: 400.0 mg/kg/injection, schedule: Q04DX002 (ip), vehicle: saline
[14] = dose: 100.0 mg/kg/injection, schedule: Q01DX009 (ip), vehicle: saline with Tween-80
[15] = dose: 200.0 mg/kg/injection, schedule: Q01DX009 (ip), vehicle: saline with Tween-80
[16] = dose: 400.0 mg/kg/injection, schedule: Q01DX009 (ip), vehicle: saline with Tween-80
[17] = dose: 100.0 mg/kg/injection, schedule: Q01DX001 (ip), vehicle: Klucel (hydroxypropylcellulose) (HPC)
[18] = dose: 200.0 mg/kg/injection, schedule: Q01DX001 (ip), vehicle: Klucel (hydroxypropylcellulose) (HPC)
[19] = dose: 400.0 mg/kg/injection, schedule: Q01DX001 (ip), vehicle: Klucel (hydroxypropylcellulose) (HPC)
[20] = dose: 12.5 mg/kg/injection, schedule: Q01DX009 (ip), vehicle: saline

Measured: T/C

CC(C)CCCCCCCCCCCCC(=O)NCC(=O)NC1C(O)C(O)C(Nc2ncnc3nc[nH]c23)OC1C(O)CO (stereo unspecified)
inactive: dose: 0.3 mg/kg/injection, schedule: Q## X000 (ip), vehicle: carboxymethylcellulose (CMC) 100 % of control | dose: 0.4 mg/kg/injection, schedule: Q01DX Z (ip), vehicle: carboxymethylcellulose (CMC) 107 % of control | dose: 0.44 mg/kg/injection, schedule: Q## X000 (ip), vehicle: carboxymethylcellulose (CMC) 107 % of control | dose: 0.6 mg/kg/injection, schedule: Q01DX Z (ip), vehicle: carboxymethylcellulose (CMC) 104 % of control | dose: 0.66 mg/kg/injection, schedule: Q## X000 (ip), vehicle: carboxymethylcellulose (CMC) 98 % of control | dose: 0.9 mg/kg/injection, schedule: Q01DX Z (ip), vehicle: carboxymethylcellulose (CMC) 103 % of control | dose: 1.0 mg/kg/injection, schedule: Q01DX001 (ip), vehicle: saline 101 % of control | dose: 1.0 mg/kg/injection, schedule: Q## X000 (ip), vehicle: carboxymethylcellulose (CMC) 110 % of control | dose: 1.35 mg/kg/injection, schedule: Q01DX Z (ip), vehicle: carboxymethylcellulose (CMC) 107 % of control | dose: 2.0 mg/kg/injection, schedule: Q01DX001 (ip), vehicle: saline 98 % of control | dose: 4.0 mg/kg/injection, schedule: Q01DX001 (ip), vehicle: saline 98 % of control | dose: 8.0 mg/kg/injection, schedule: Q01DX001 (ip), vehicle: saline 101 % of control | dose: 12.0 mg/kg/injection, schedule: Q01DX001 (ip), vehicle: saline 105 % of control | [1] 112 % of control | dose: 27.0 mg/kg/injection, schedule: Q01DX001 (ip), vehicle: saline 96 % of control

CCN(CC)CCOC(=O)c1cccnc1
inactive: [2] 96 % of control | [3] 103 % of control | [4] 94 % of control | dose: 50.0 mg/kg/injection, schedule: Q04DX003 (ip), vehicle: saline 97 % of control | [5] 100 % of control | [6] 97 % of control | [7] 86 % of control | [8] 95 % of control | [9] 107 % of control | [10] 101 % of control

CC(=O)OC12CC3(C)CC(C)(C1)CC(OC(C)=O)(C3)C2
inactive: [11] 113 % of control | [12] 90 % of control | [13] 113 % of control

CCOC(=O)Cc1ccccc1
inactive: [14] 97 % of control | dose: 175.0 mg/kg/injection, schedule: Q04DX003 (ip), vehicle: saline with Tween-80 91 % of control | [15] 104 % of control | dose: 265.0 mg/kg/injection, schedule: Q04DX003 (ip), vehicle: saline with Tween-80 106 % of control | [16] 99 % of control

COc1ccc(N2C(=O)CC(Sc3ccccc3N)C2=O)cc1 (stereo unspecified)
inactive: dose: 100.0 mg/kg/injection, schedule: Q01DX009 (ip), vehicle: other 102 % of control | [6] 94 % of control | dose: 200.0 mg/kg/injection, schedule: Q01DX009 (ip), vehicle: other 91 % of control | [8] 90 % of control | dose: 400.0 mg/kg/injection, schedule: Q01DX009 (ip), vehicle: other 91 % of control | [10] 90 % of control

O=C1c2ccccc2C(=O)N1C/C(Cl)=C/Cl
inactive: [14] 92 % of control | dose: 100.0 mg/kg/injection, schedule: Q04DX003 (ip), vehicle: saline with Tween-80 97 % of control | [15] 93 % of control | dose: 200.0 mg/kg/injection, schedule: Q04DX003 (ip), vehicle: saline with Tween-80 93 % of control | [16] 91 % of control | dose: 400.0 mg/kg/injection, schedule: Q04DX003 (ip), vehicle: saline with Tween-80 92 % of control

C=C1CC(C)(c2ccc(S(=O)(=O)N3CCCC3)cc2)OC1=O (stereo unspecified)
inactive: dose: 18.0 mg/kg/injection, schedule: Q01DX009 (ip), vehicle: Klucel (hydroxypropylcellulose) (HPC) 108 % of control | dose: 37.5 mg/kg/injection, schedule: Q01DX009 (ip), vehicle: Klucel (hydroxypropylcellulose) (HPC) 95 % of control | dose: 75.0 mg/kg/injection, schedule: Q01DX009 (ip), vehicle: Klucel (hydroxypropylcellulose) (HPC) 104 % of control | dose: 87.5 mg/kg/injection, schedule: Q01DX009 (ip), vehicle: Klucel (hydroxypropylcellulose) (HPC) 104 % of control

O=C(O)/C=C/C(=O)NCCC(=O)O
inactive: [5] 114 % of control | [7] 115 % of control | [9] 109 % of control

Cc1ccc(C(c2ccccc2)c2ccccc2)cc1C
inactive: dose: 100.0 mg/kg/injection, schedule: Q01DX001 (ip), vehicle: saline 97 % of control | dose: 400.0 mg/kg/injection, schedule: Q01DX001 (ip), vehicle: saline 88 % of control

O=C(O)C1=NNC(C(=O)O)=NN1
inactive: [17] 92 % of control | [18] 100 % of control | [19] 104 % of control

CCN1c2ccccc2C(Cl)(c2ccc(N(C)C)cc2)c2ccccc21
inactive: dose: 1.8 mg/kg/injection, schedule: Q03HX024 (ip), vehicle: saline 96 % of control | dose: 2.6 mg/kg/injection, schedule: Q03HX024 (ip), vehicle: saline 88 % of control | dose: 3.9 mg/kg/injection, schedule: Q03HX024 (ip), vehicle: saline 95 % of control | dose: 5.9 mg/kg/injection, schedule: Q03HX024 (ip), vehicle: saline 101 % of control | dose: 6.25 mg/kg/injection, schedule: Q01DX009 (ip), vehicle: saline 93 % of control | dose: 6.25 mg/kg/injection, schedule: Q04DX003 (ip), vehicle: saline 95 % of control | dose: 8.8 mg/kg/injection, schedule: Q01DX009 (ip), vehicle: saline 101 % of control | dose: 8.8 mg/kg/injection, schedule: Q03HX024 (ip), vehicle: saline 101 % of control and 104 % of control | dose: 12.5 mg/kg/injection, schedule: Q01DX001 (ip), vehicle: saline 101 % of control | [20] 115 % of control | dose: 12.5 mg/kg/injection, schedule: Q04DX003 (ip), vehicle: saline 108 % of control | dose: 13.0 mg/kg/injection, schedule: Q01DX009 (ip), vehicle: saline 105 % of control | [1] 103 % of control | dose: 18.0 mg/kg/injection, schedule: Q04DX003 (ip), vehicle: saline 104 % of control | dose: 20.0 mg/kg/injection, schedule: Q01DX009 (ip), vehicle: saline 106 % of control | dose: 25.0 mg/kg/injection, schedule: Q01DX001 (ip), vehicle: saline 111 % of control | [2] 112 % of control | [3] 104 % of control | dose: 26.0 mg/kg/injection, schedule: Q01DX001 (ip), vehicle: saline 103 % of control | dose: 26.0 mg/kg/injection, schedule: Q04DX003 (ip), vehicle: saline 102 % of control | dose: 30.0 mg/kg/injection, schedule: Q01DX009 (ip), vehicle: saline 98 % of control | dose: 39.0 mg/kg/injection, schedule: Q01DX001 (ip), vehicle: saline 104 % of control | dose: 39.0 mg/kg/injection, schedule: Q04DX003 (ip), vehicle: saline 103 % of control

Cc1ccc(S(=O)(=O)/N=C2\SCc3ccccc32)cc1
inactive: [20] 108 % of control | [2] 105 % of control | [4] 94 % of control and 101 % of control | [17] 94 % of control | [18] 88 % of control | [19] 98 % of control

O=C1C2C(Cl)C(Cl)C(Cl)C(Cl)C2C(=O)N1NC1CCC([N+](=O)[O-])CC1[N+](=O)[O-] (stereo unspecified)
inactive: [5] 91 % of control | [11] 92 % of control | [7] 94 % of control | [12] 106 % of control | [9] 98 % of control | [13] 95 % of control

O=C(NCCCN1CCOCC1)C(Oc1ccccc1)Oc1ccccc1
inactive: dose: 6.25 mg/kg/injection, schedule: Q01DX009 (ip), vehicle: Klucel (hydroxypropylcellulose) (HPC) 91 % of control | dose: 12.5 mg/kg/injection, schedule: Q01DX009 (ip), vehicle: Klucel (hydroxypropylcellulose) (HPC) 98 % of control | dose: 25.0 mg/kg/injection, schedule: Q01DX009 (ip), vehicle: Klucel (hydroxypropylcellulose) (HPC) 100 % of control | dose: 50.0 mg/kg/injection, schedule: Q01DX009 (ip), vehicle: Klucel (hydroxypropylcellulose) (HPC) 89 % of control

From PubChem BioAssay AID248 (DTP/NCI, 2004)
